# Laboratory results taken from patent publication US20200317741A1, “COMPOSITION FOR PREVENTING HAIR LOSS OR PROMOTING HAIR GROWTH” (BR PHARM CO., LTD., priority 2019, published 2020).
# Ends that are not written are not given here.
# Assays:
# Type in all cases: cell-based
# β-catenin = assay: Expression analysis of β-catenin in dermal papilla cells (western blot); details: FIG. 6 legend
# Experimental: (§1) As in Example 1, the dermal papilla cells were stabilized for at least 4 hours after seeding in 6 well plates at 4×10^4 cells/well. Thereafter, the medium was removed, and the cell was treated with PDRN, Wnt-1 peptide and Wnt-2 peptide at various concentrations alone or in combination and incubated for 72 hours in an incubator at 37° C., 5% CO2.
# (§2) Then, the cells were lysed by adding lysis buffer (1 M Tris-HCl, 0.5 M EDTA, 1% Triton X-100, 100 mM PMSF) to each cell, and the protein was quantified using a BCA (Bicinconinic acid) kit. 20 μg of protein was loaded on 10% SDS-polyacrylamide and electrophoresed at 125 V. The protein separated by electrophoresis was transferred to PVDF membrane (Immobilon-P transfermembrane) by electrophoresis at 50 mA for 120 minutes using transfer buffer (20% methanol, 25 mM Tris-HCl, 192 mM glycine).
# (§3) To prevent nonspecific binding, the membranes were blocked with 5% non-fat skim milk and then the reaction was carried out at 4° C. for 12 hours with a primary antibody (β-catenin, c-myc, Santa Cruz Biotechnology, Inc.) diluted to 1:1000 in TTBS solution ([…], pH 7.4; 20 mM NaCl; 0.05% Tween-20). Thereafter, the membrane was washed three times with TTBS and reacted with a secondary antibody (HRP-conjugated anti-rabbit IgG) diluted to 1:2000 at room temperature for 2 hours. The membrane was then washed three times with TTBS and then protein expression was confirmed on the X-ray film using an ECL diagnostic kit.
# dermal papilla cells [1] = assay: Dermal papilla cell growth rate by cell counting (PDRN alone or with Wnt-1+Wnt-2); details: PDRN 50, 100, 200 μg/mL, 72 hours, relative to control without PDRN (FIG. 2)
# Experimental: Dermal papilla cells (Promocells) were cultured in an incubator at 37° C., 5% CO2 using DMEM medium (Dulbeco's Modified Eagle's Medium) containing 10% fetal bovine serum (FBS) and 1% penicillin/streptomycin.
# Cells were recovered by treating the cultured cells with trypsin/EDTA, and then the number of cells was measured using a hemacytometer. The cells were seeded in 96 well plates at 3×10^3 cells/200 μL/well and then stabilized for at least 4 hours. Thereafter, the medium was removed, diluted in DEME medium so as to be the polydeoxyribonucleotide (PDRN) of 50, 100, 200 μg/mL concentration and then treated with cells and cultured for 72 hours in an incubator at 37° C., 5% CO2.
# Subsequently, the cells were recovered by treating them with trypsin/EDTA and then the number of cells was measured using a hematocytometer. Cell growth rate was analyzed by calculating percentages based on the control group without the treatment with PDRN.
# As in Example 1, the dermal papilla cells were seeded in 96 well plates at 3×10^3 cells/200 μL/well and stabilized for at least 4 hours. Thereafter, the medium was removed, diluted with DEME medium so as to be polydeoxyribonucleotide (PDRN, BR Pharm Co. Ltd.) of 25, 50, 100 μg/mL and Wnt-1 peptide+Wnt-2 peptide of 0.1 μg/mL (each 0.05 μg/mL) and then treated with cells and cultured for 72 hours in an incubator at 37° C., 5% CO2.
# c-myc = assay: Expression analysis of c-myc in dermal papilla cells (western blot); details: for activity of c-myc: FIG. 7 legend
# Experimental: as §1, §2, §3
# keratinocytes = assay: Keratinocyte growth by Wnt-derived peptides (microscopy); details: 72 hours (FIG. 3A)
# Experimental: (§4) To confirm the shape change and proliferation rate of cells, keratinocytes T0020001 (AddexBio), fibroblasts (ATCC), and dermal papilla cells were cultured in DMEM medium containing 10% fetal bovine serum and 1% penicillin/streptomycin.
# (§5) After the cells were recovered by treating the cultured cells with trypsin/EDTA and the number of cells was measured using a hematocytometer. The cells were seeded in 96 well plates at 3×10^3 cells/200 μL/well and stabilized for at least 4 hours.
# (§6) Thereafter, the medium was removed, diluted with DEME medium so as to be the Wnt peptides (Wnt-1, Wnt-2) of 10, 100, 1000, and 10000 ng/mL and then treated with cells and cultured for 72 hours in an incubator at 37° C., 5% CO2. The cells were then observed by a microscope to analyze the morphology and growth rate of the cells.
# fibroblasts = assay: Fibroblast growth by Wnt-derived peptides (microscopy); details: 10-10000 ng/mL, 72 hours, compared to the control group (FIG. 3B)
# Experimental: as §4, §5, §6
# dermal papilla cells [2] = assay: Dermal papilla cell growth by Wnt-derived peptides (microscopy); details: 100 ng/mL among 10-10000 ng/mL, 72 hours (FIG. 3C)
# Experimental: as §4, §5, §6
substance,measurement,setting,value
polydeoxyribonucleotide [PDRN],activity of β-catenin,β-catenin,effect of increasing the activity of β-catenin
same,growth rate of the dermal papilla cells,dermal papilla cells [1],increases as the PDRN treatment concentration increases
same,expression of c-myc with PDRN treatment concentration,c-myc; 72 hours (FIG. 7),increased as the treatment concentration of PDRN increased
MCCGRGYNYH (Ac-MCCGRGYNYH; cysteine pairing not given here) [Wnt-2],cell growth rate (keratinocytes) at 100 ng/mL,keratinocytes; 100 ng/mL among 10-10000 ng/mL,highest cell growth rate
same,cell growth (fibroblasts) compared to the control group,fibroblasts,no change was observed
same,cell growth rate (dermal papilla cells) at 100 ng/mL,dermal papilla cells [2],highest cell growth rate
same,activity of β-catenin,β-catenin,effect of increasing the activity of β-catenin
same,activity of c-myc,c-myc,effect of increasing the activity of c-myc
MCCGRGYDQF (Ac-MCCGRGYDQF; cysteine pairing not given here) [Wnt-1],growth rate of the cells (keratinocytes),"keratinocytes; 10, 100, 1000, 10000 ng/mL",growth rate of the cells was increased
same,cell growth rate (dermal papilla cells) at 100 ng/mL,dermal papilla cells [2],highest cell growth rate
same,activity of β-catenin,β-catenin,effect of increasing the activity of β-catenin
same,activity of c-myc,c-myc,effect of increasing the activity of c-myc
